Test: Human HepG2 cell viability assay in 384 well format
Format: toxicity, cell-based
Set-up: dose 125 nL, time 70.5 hour; cytotoxicity at 70.5 h: concentration not given beside the values
Settings: HepG2 cells, read-out: Inhibition

Row | SMILES | cytotoxicity at 70.5 h [%]
1 | O=C(Nc1cn[nH]c1)N1CCCCCC1c1ccncc1 (stereo not given) | -8.75
2 | CC(NC(=O)N1CCNC(=O)CC1)c1c(F)cccc1Cl (stereo not given) | -4.44
3 | CCCS(=O)(=O)N1CCN(C(C)(C)CO)CC1 | 15.5
4 | CN(CC(C)(CO)CO)C(=O)Nc1cc(F)cc(Cl)c1 | -6.37
5 | CC(NCCCN1CCCC1=O)c1ccc(F)cc1N(C)C (stereo not given) | -4.56
6 | CC(NCC1(N(C)C)CCOCC1)c1ccc(S(C)(=O)=O)cc1 (stereo not given) | -3.6
7 | CC(NCCCN1CCCC1=O)c1cc(Br)ccc1O (stereo not given) | -5.37
8 | Cn1cc(NCCOc2ccc(F)cc2)cn1 | -5.12
9 | Cc1ccc(O)c(CNc2cccc(CN3CCN(C)CC3)c2)n1 | -0.441
10 | CC1CCCCN1C(=O)CCc1nnc(-c2ccccc2)o1 (stereo not given) | -1.68
11 | NC(=O)CS(=O)(=O)Cc1csc(-c2ccccc2)n1 | -4.61
12 | O=C(Cc1ccc2c(c1)CCCC2)Nc1cccnc1N1CCSCC1 | -7.86
13 | O=C(Nc1cccnc1N1CCSCC1)c1cc2c(s1)CCCCC2 | -6.67
14 | Cc1nc(-c2ccccc2)sc1CNC(=O)c1ccc(=O)n(C)c1 | -3.22
15 | Cc1c(C(=O)N2CCC2)nnn1-c1ccc2ncccc2c1 | -3.53
16 | Cc1ccc(S(=O)(=O)Nc2ccc(-n3ccnc3C)nc2)cc1N(C)C | -2.22
17 | Cc1cccc(NCc2nc(C)ccc2O)c1 | -1.28
18 | COCCN1CCC(CNC(=O)CCc2cc(F)ccc2F)C1 (stereo not given) | -4.52
19 | CCc1ccc(C(=O)N2CCCN(Cc3csc(CC)n3)CC2)o1 | 6.45
20 | CCN1CCN(C(=O)c2ccc(OC)nn2)c2ccccc21 | -0.876
21 | CN(C)C(=O)CN(C)C(=O)c1cccn1CCc1ccccc1 | -3.57
22 | c1cnnc(N2CCCC(NCc3cccc4c3OCO4)C2)c1 (stereo not given) | 1.39

Row | SMILES | cytotoxicity at 70.5 h [%]
23 | COc1ccc(OC)c(CNC2CCCN(c3cccnn3)C2)c1 (stereo not given) | -3.12
24 | CCc1nc(CN2CCN(C(=O)c3cc(C)nn3C)CC2)cs1 | -6.68
25 | CCN1CCN(C(=O)c2csnn2)c2ccccc21 | 9.42
26 | CS(=O)(=O)Cc1noc(CN(Cc2ccco2)c2ccccc2)n1 | -5.15
27 | NC(=O)c1ccc(CNC(=O)NCc2cc[nH]n2)cc1 | -12.2
28 | Cc1noc(C)c1C(=O)N(C)C(C)c1ccc(S(C)(=O)=O)cc1 (stereo not given) | -20.5
29 | O=C(NCC1CCOC1)c1cc(-c2ccc(Cl)cc2)n[nH]1 (stereo not given) | 20.6
30 | CC(NC(=O)NC1CCN(Cc2ccncc2)CC1)c1ccccc1F (stereo not given) | -22.4
31 | Cc1cc(N(C)CC2COc3ccccc3O2)nc(N)n1 (stereo not given) | -5.43
32 | COc1cccc(CNC(=O)C(C)N2CC(n3nc(C)cc3C)C2)c1 (stereo not given) | -12.9
33 | Cc1noc(C)c1C(=O)N(C)C(C)c1cccnc1 (stereo not given) | -15.6
34 | COc1ccccc1CNC(=O)C(C)N1CC(n2cc(C)cn2)C1 (stereo not given) | -10.8
35 | CNS(=O)(=O)CC(=O)N(C1CCCC1)C1CC1 | -12.4
36 | CN(CCOc1ccccc1)C(=O)Nc1cccn(C)c1=O | 20.8
37 | O=C1CSCN1Cc1nc(-c2ccc(N3CCCCC3)cc2)no1 | -5.66
38 | O=C1OCCCN1Cc1nc(-c2ccc(N3CCCCC3)cc2)no1 | -11.4
39 | NC(=O)c1ccc(NC(=O)N2CCN(c3cccs3)CC2)c(F)c1 | -16.2
40 | CC(C)c1noc(C(C)N2CCN(Cc3nc4ccccc4[nH]3)CC2)n1 (stereo not given) | -8.5
41 | CCN(CC)C(=O)N1CCOCC1c1c(C)nn(C)c1C (stereo not given) | -10.5
42 | Cc1nn(C)c(C)c1C1COCCN1C(=O)CSC(C)(C)C (stereo not given) | -18.7
43 | CC(C)N(C)S(=O)(=O)N(Cc1cccs1)CC1CCCO1 (stereo not given) | 37.4
44 | CNC(=O)NC(=O)C(NCc1ccccc1)c1ccccc1 (stereo not given) | 17.9

Row | SMILES | cytotoxicity at 70.5 h [%]
45 | COCCOc1ncccc1CNC(=O)N1CCCCCC1 | -12.7
46 | CCCN(CC1COc2ccccc2O1)C(=O)CCN1C(=O)CCC1=O (stereo not given) | -18.8
47 | CCC1CCCN(Cc2nc3ccccc3c(=O)[nH]2)C1 (stereo not given) | -14
48 | O=C(CCSc1ccccc1F)N1CCN(c2cnccn2)CC1 | 11
49 | Cc1cc(C)c(CNC(=O)NCCNc2ccccn2)c(=O)[nH]1 | -9.53
50 | Cc1occc1C(=O)NCC(=O)NCCCOc1ccc(F)cc1 | -17.7
51 | O=C(CCSc1ccc(F)cc1)N1CCN(c2cnccn2)CC1 | -14.2
52 | COCCOc1ncccc1C(=O)N(C)c1nccs1 | -14.2
53 | CC(=O)c1cccc(NC(=O)NCCc2nnc[nH]2)c1 | -10.6
54 | CCC(=O)NCC(CC)Oc1cccc(F)c1 (stereo not given) | -3.64
55 | CCC(CNC(=O)CNC(C)=O)Oc1cccc(F)c1 (stereo not given) | -9.82
56 | Cc1nc(CC2CCCN(Cc3nc(N)c4ccccc4n3)C2)no1 (stereo not given) | -7.12
57 | Cc1ncc(S(=O)(=O)N(CC(C)C)c2cccc(O)c2)s1 | -1.45
58 | CC(C)n1cc(CN2CCCN(C(=O)C3(C)CCOCC3)CC2)cn1 | -11.5
59 | COc1ccccc1CN(Cc1cccs1)S(=O)(=O)N(C)C(C)C | -2.73
60 | CC(C)N(C)S(=O)(=O)N(Cc1cccs1)Cc1cccs1 | -12.9
61 | Cc1nc(C(=O)N2CCCC(c3nc(C(C)C)cs3)C2)c[nH]1 (stereo not given) | 12.6
62 | CCN(CC)CC(=O)N1CCN(CCc2ccncc2)CC1 | -9.33
63 | COC(=O)C1CN(Cc2ccc(-c3ccncc3)cc2F)C[C@@H](C)O1 (stereo not given in full) | 11.8
64 | COc1cccc(CNC(=O)CCOc2ccccc2C)c1 | -10.3
65 | COC(=O)c1ccc(Cl)c(S(=O)(=O)Nc2ccc(F)c(C(N)=O)c2)c1 | -14.5
66 | O=C(CC1CCN(c2ncnc3ccccc23)CC1)N1CCCC1 | -6.95

Row | SMILES | cytotoxicity at 70.5 h [%]
67 | CSCc1ccc(CNCCCN2CCOCC2)o1 | -12.3
68 | Cc1ccccc1OCCCC(=O)NCc1ccnc(O)c1 | -11.5
69 | CC(NC(=O)Nc1cccnc1N1CCOCC1)c1ccncc1 (stereo not given) | 6.43
70 | CC(C)C(=O)NS(=O)(=O)CCc1ccccc1 | -12.8
71 | Cc1nc(Cn2cc(C#N)c(=O)c3ccccc32)no1 | -5.75
72 | Cc1noc(C)c1CN1CCCC1C(=O)OCc1ccccc1 (stereo not given) | -10.7
73 | Cc1oc(C)c(C(=O)NS(=O)(=O)c2ccc3c(c2)OCCO3)c1Br | -17.9
74 | CC(=O)N1CCCN(C(C)C(=O)Nc2ccnn2C(C)C)CC1 (stereo not given) | -3.26
75 | COCCN(CCC#N)S(=O)(=O)c1cc(F)ccc1F | -2.55
76 | NCC1(c2cccc(C(F)(F)F)c2)CCC1 | -2.75
77 | COc1cccc(CN(C)Cc2cc(C#N)ccc2F)c1OC | -9.77
78 | CCCn1nc2c(cc1=O)CN(Cc1cc(C)no1)CC2 | -8.28
79 | CNS(=O)(=O)c1cccc(C(C)NCc2ccc(C)c(C)c2)c1 (stereo not given) | 19.3
80 | NC(=O)C1CCN(c2cncc(-n3cccn3)n2)CC1 | 6.36
81 | N#CCCN(C(=O)CN1CCCC1c1ccccc1Cl)c1ccccc1 (stereo not given) | -11.7
82 | COc1ccc(NC(=O)c2ccoc2C)c(N2CCN(C(C)=O)CC2)n1 | -14.1
83 | CC(=O)c1cccc(NC(=O)CN2CCCCC2C(=O)N2CCCC2)c1 (stereo not given) | -13.4
84 | CS(=O)(=O)c1ccc(NC(=O)CSc2ccc3c(c2)CCC3)cn1 | -14.4
85 | CNC(=O)c1cnc(/C=C/c2ccc(O)c(OC)c2)s1 | -14.3
